Like-named read-outs stand apart in the source and are kept apart here. Positions of bridges follow the written chain, without caps; N, C: chain ends. Non-standard residues stand in square brackets, D forms with d. Residues, ends and D or L forms follow the SMILES beside them. ξ: configuration not given here. *: point of attachment. Cyclopentanecarbonyl = O=C(C1CCCC1)*; Bta = N[C@@H](Cc1csc2ccccc12)C(=O)O; Hyp = O=C(O)[C@@H]1C[C@@H](O)CN1; NMeNle = CCCC[C@H](NC)C(=O)O; NMeS = CN[C@@H](CO)C(=O)O; NMeA = CN[C@@H](C)C(=O)O; Dap = NC[C@H](N)C(=O)O; Bn = c1ccc(C*)cc1; ξC = NC(CS)C(=O)O; Sar = CNCC(=O)O
Experiments:
[1] = target: T1, LK35.2-hPD-L1 cells / PE-labeled PD-1-Ig (Homo sapiens, UniProt Q9NZQ7); experiment: LK35.2-hPD-L1 cell binding high-content screening assay; assay type: cell-based; conditions: cluster symbol, read-out: CBA IC50 cluster
T1 construct: expressed in transfected cells; host or cells: LK35.2 mouse B cell line
T1 sequence (Q9NZQ7 19-290): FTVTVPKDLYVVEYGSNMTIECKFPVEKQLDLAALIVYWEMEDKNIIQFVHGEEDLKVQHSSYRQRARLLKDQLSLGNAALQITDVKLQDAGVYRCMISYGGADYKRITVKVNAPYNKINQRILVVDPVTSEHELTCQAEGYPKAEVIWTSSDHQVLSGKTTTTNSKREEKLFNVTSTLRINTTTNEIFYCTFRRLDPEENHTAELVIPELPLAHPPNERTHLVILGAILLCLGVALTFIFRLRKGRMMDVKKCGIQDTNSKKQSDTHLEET
Outline: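 Using overnight-cultured LK35.2-hPD-L1 mouse B cells, compound was co-incubated with phycoerythrin-tagged human PD-1-Ig (final 1 nM) at 37 °C for one hour. Unbound label was removed by triple dPBS washing prior to high-content image acquisition and analysis.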

[2] = target: T2, Human PD-L1/PD-1 (Homo sapiens, UniProt Q9NZQ7); experiment: HTRF PD-1-Ig/PD-L1-His binding assay (human PD-L1); conditions: cluster symbol; read-out: HTRF IC50 cluster
T2 construct: made in house; host or cells: HEK293T
T2 sequence (Q9NZQ7 with tags, fused parts or gaps): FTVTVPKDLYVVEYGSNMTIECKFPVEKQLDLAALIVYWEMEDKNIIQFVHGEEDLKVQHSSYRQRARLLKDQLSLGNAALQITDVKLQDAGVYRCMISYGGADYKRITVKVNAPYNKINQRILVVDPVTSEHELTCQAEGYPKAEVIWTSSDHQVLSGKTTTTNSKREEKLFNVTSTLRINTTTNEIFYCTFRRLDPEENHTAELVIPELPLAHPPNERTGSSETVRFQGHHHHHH
Outline: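 Interaction of Fc-tagged soluble PD-1 with His-tagged soluble PD-L1 is monitored by time-resolved FRET. Donor is europium cryptate anti-Ig (1 nM final) and acceptor is APC anti-His (20 nM final). Assay buffer is dPBS with 0.1% BSA and 0.05% Tween-20.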

[3] = cell line of CBA not given (LK35.2-hPD-L1 or 293T-hPD-L1)
[4] = cell binding assay, cell line not given

| Structure (SMILES) | IC50 [1, 3] [nM] | IC50 [2] [nM] | IC50 [1, 4] [nM] |
| --- | --- | --- | --- |
| CCCC[C@H]1C(=O)N[C@@H](CCCNC(=N)N)C(=O)N[C@H](C(=O)NCC(N)=O)CSCC(=O)N[C@@H](Cc2ccccc2)C(=O)N(C)[C@@H](C)C(=O)N[C@@H](CC(N)=O)C(=O)N2CCC[C@H]2C(=O)N[C@@H](Cc2cnc[nH]2)C(=O)N[C@@H](CC(C)C)C(=O)N(C)CC(=O)N[C@@H](Cc2c[nH]c3ccccc23)C(=O)N[C@@H](CO)C(=O)N[C@@H](Cc2c[nH]c3ccccc23)C(=O)N[C@@H](CNC(=O)C2CCCC2)C(=O)N1C [Example 1012] ({CH2CO}-F[NMeA]NPHL[Sar]WSW[Dap](Cyclopentanecarbonyl)[NMeNle]RCG-NH2; thioether N-14) | > 74.3 | > 30.5 |  |
| CCCC[C@H]1C(=O)N[C@@H](CCCNC(=N)N)C(=O)NC(C(=O)NCC(N)=O)CSCC(=O)N[C@@H](Cc2ccc(O)cc2)C(=O)N(C)[C@@H](C)C(=O)N[C@@H](CC(N)=O)C(=O)N2CCC[C@H]2C(=O)N[C@@H](Cc2cnc[nH]2)C(=O)N[C@@H](CC(C)C)C(=O)N2C[C@H](O)C[C@H]2C(=O)N[C@@H](Cc2c[nH]c3ccccc23)C(=O)N[C@@H](CO)C(=O)N[C@@H](Cc2c[nH]c3ccccc23)C(=O)N(C)[C@@H](COCC)C(=O)N1C (stereo partly drawn) [Example 9046] |  | 0.385 to 6.74 | 0.158 to 4.71 |
| CCCC[C@H]1C(=O)N(C)[C@@H](CCCC)C(=O)N[C@@H](CO)C(=O)NC(C(=O)NCC(N)=O)CSCC(=O)N[C@@H](Cc2ccc(O)cc2)C(=O)N(C)[C@@H](C)C(=O)N[C@@H](CC(N)=O)C(=O)N2CCC[C@H]2C(=O)N[C@@H](Cc2cnc[nH]2)C(=O)N[C@@H](CC(C)C)C(=O)N2CCC[C@H]2C(=O)N[C@@H](Cc2c[nH]c3ccccc23)C(=O)N[C@@H](CO)C(=O)N[C@@H](Cc2csc3ccccc23)C(=O)N1C (stereo partly drawn) [Example 9027] ({CH2CO}-Y[NMeA]NPHLPWS[Bta][NMeNle][NMeNle]S[ξC]G-NH2; thioether N-14) |  | 0.385 to 6.74 | 0.158 to 4.71 |
| CCCC[C@H]1C(=O)N(C)[C@@H](COCc2ccccc2)C(=O)N[C@@H](CCCNC(=N)N)C(=O)N[C@H](C(=O)NCC(N)=O)CSCC(=O)N[C@@H](Cc2ccccc2)C(=O)N(C)[C@@H](C)C(=O)N[C@@H](CC(N)=O)C(=O)N2CCC[C@H]2C(=O)N[C@@H](Cc2cnc[nH]2)C(=O)N[C@@H](CC(C)C)C(=O)N(C)CC(=O)N[C@@H](Cc2c[nH]c3ccccc23)C(=O)N[C@@H](CO)C(=O)N[C@@H](Cc2c[nH]c3ccccc23)C(=O)N1C [Example 6016] ({CH2CO}-F[NMeA]NPHL[Sar]WSW[NMeNle][NMeS](Bn)RCG-NH2; thioether N-14) |  | 6.76 to 30.3 | 4.78 to 72.9 |
| CCCC[C@H]1C(=O)N(C)[C@@H](CCCC)C(=O)N[C@@H](CCCNC(=N)N)C(=O)N[C@H](C(=O)NCC(N)=O)CSCC(=O)N[C@@H](Cc2ccc(O)cc2)C(=O)N(C)[C@@H](C)C(=O)N[C@@H](CC(N)=O)C(=O)N2CCC[C@H]2C(=O)N[C@@H](Cc2cnc[nH]2)C(=O)N[C@@H](CCC(=O)O)C(=O)N2C[C@H](O)C[C@H]2C(=O)N[C@@H](Cc2c[nH]c3ccccc23)C(=O)N[C@@H](CO)C(=O)N[C@@H](Cc2c[nH]c3ccccc23)C(=O)N1C [Example 1159] ({CH2CO}-Y[NMeA]NPHE[Hyp]WSW[NMeNle][NMeNle]RCG-NH2; thioether N-14) | 0.158 to 4.71 | 6.76 to 30.3 |  |
| CCCC[C@H]1C(=O)N(C)[C@@H](CCCC)C(=O)N[C@@H](CCCNC(=N)N)C(=O)N[C@H](C(=O)NCC(=O)N[C@@H](C)C(N)=O)CSCC(=O)N[C@@H](Cc2ccc(O)cc2)C(=O)N(C)[C@@H](C)C(=O)N[C@@H](CC(N)=O)C(=O)N2CCC[C@H]2C(=O)N[C@@H](Cc2cnc[nH]2)C(=O)N[C@@H](CC(C)C)C(=O)N2C[C@H](O)C[C@H]2C(=O)N[C@@H](Cc2c[nH]c3ccccc23)C(=O)N[C@@H](CO)C(=O)N[C@@H](Cc2c[nH]c3ccccc23)C(=O)N1C [Example 6019] ({CH2CO}-Y[NMeA]NPHL[Hyp]WSW[NMeNle][NMeNle]RCGA-NH2; thioether N-14) |  | 0.385 to 6.74 | 0.158 to 4.71 |

Source: patent US9850283B2, “Macrocyclic inhibitors of the PD-1/PD-L1 and CD80(B7-1)/PD-L1 protein/protein interactions” (BRISTOL-MYERS SQUIBB COMPANY, priority 2013, dated 2017)
